pIC50: −log10 of the molar value.

By pIC50 is commonly meant the IC50 on a negative log10 scale, so that one unit is a factor of ten.

estrogen receptor (ER), sequence (P03372 whole entry): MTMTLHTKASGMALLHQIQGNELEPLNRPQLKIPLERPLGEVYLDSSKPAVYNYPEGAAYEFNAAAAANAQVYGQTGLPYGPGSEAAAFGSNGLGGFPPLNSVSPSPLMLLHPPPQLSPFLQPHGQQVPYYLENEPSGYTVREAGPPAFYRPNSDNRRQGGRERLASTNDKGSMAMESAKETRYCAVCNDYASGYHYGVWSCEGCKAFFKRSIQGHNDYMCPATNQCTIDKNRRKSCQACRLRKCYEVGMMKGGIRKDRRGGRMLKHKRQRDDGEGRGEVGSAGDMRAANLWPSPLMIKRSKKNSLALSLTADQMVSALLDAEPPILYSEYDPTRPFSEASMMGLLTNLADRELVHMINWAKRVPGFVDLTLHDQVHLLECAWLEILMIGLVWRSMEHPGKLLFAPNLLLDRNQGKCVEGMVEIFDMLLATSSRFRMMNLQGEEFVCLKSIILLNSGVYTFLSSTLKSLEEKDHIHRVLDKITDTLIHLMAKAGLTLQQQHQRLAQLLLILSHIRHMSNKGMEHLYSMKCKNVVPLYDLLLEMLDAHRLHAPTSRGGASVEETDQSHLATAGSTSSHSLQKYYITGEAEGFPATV

This assay addresses estrogen receptor (ER) (Homo sapiens (Human), UniProt P03372). Nature of the assay: Inhibition of the binding of estrogen (E) to estrogen receptor (ER), MCF-7/ERE-luciferase reporter cells. The format is cell-based. As to conditions: MCF-7/ERE-luciferase cells, 0.1 nM estradiol, 24 hours; read-out: IC50 value of inhibition effect on the binding of E to ER. As for the experimental part:
The inhibition effect of the compounds on the binding of E to ER in vitro was tested by the following method.
The object of this experiment was to determine the inhibition effect of the compounds on the binding of E to ER, and the in vitro activity of the compounds was evaluated according to the IC50 value.
MCF-7/ERE-luciferase cells were inoculated into the MEM medium (hyclone, SH30024.01B) containing 10% charcoal stripped FBS (Moregate, FBSF), 1% sodium pyruvate (Sigma, Cat. No. S8636), 1% nonessential amino acids (Sigma, Cat. No. M7145) and 500 μg/ml G418 in a 96-well plate with a density of 30,000 cells/well, and the cells were incubated under the conditions of 37° C. and 5% CO2. […] After incubation for 24 hours, the medium was removed, then 0.1 nM estradiol (Sigma, Cat. No. E2758) and 10 μl of the drug diluted with the medium were added to each well, and the control group was added with DMSO. The plate was gently shaken and incubated in a incubator at 37° C., 5% CO2. After 24 hours, the cell culture medium was discarded.
The inhibition effect of the compounds of the present invention on the binding of E to ER was tested by the experiment described above.
Regarding `CC1Cc2cc(NC(=O)OC(C)(C)C)ccc2C(c2c(F)cc(/C=C/C(=O)O)cc2F)N1CC(C)(C)F` [Example 31, (E)-3-(4-((1S,3R/1R,3S)-6-((tert-butoxycarbonyl)amino)-2-(2-fluoro-2-methylpropyl)-3-methyl-1,2,3,4-tetrahydroisoquinolin-1-yl)-3,5-difluorophenyl)acrylic acid], the negative logarithm of the IC50 (pIC50) was 7.08.

As for `CC1Cc2cc(C3CC3)ccc2C(c2c(F)cc(/C=C/C(=O)O)cc2F)N1CC(C)(C)F` [Example 34, (E)-3-(4-((1S,3R/1R,3S)-6-cyclopropyl-2-(2-fluoro-2-methylpropyl)-3-methyl-1,2,3,4-tetrahydroisoquinolin-1-yl)-3,5-difluorophenyl)acrylic acid], the negative-log IC50 (pIC50) is 7.73.

As for `CC1Cc2cc(OC3CCOCC3)ccc2C(c2c(F)cc(/C=C/C(=O)O)cc2F)N1CC(C)(C)F` [Example 36, (E)-3-(3,5-difluoro-4-((1S,3R/1R,3S)-2-(2-fluoro-2-methylpropyl)-3-methyl-6-((tetrahydro-2H-pyran-4-yl)oxy)-1,2,3,4-tetrahydroisoquinolin-1-yl)phenyl)acrylic acid], the pIC50 is 7.60.

Turning to `CC(C)Cn1cc(-c2ccc3c(c2)CC(C)N(CC(C)(C)F)C3c2c(F)cc(/C=C/C(=O)O)cc2F)cn1` [Example 52, (E)-3-(3,5-difluoro-4-((1S,3R/1R,3S)-2-(2-fluoro-2-methylpropyl)-6-(1-isobutyl-1H-pyrazol-4-yl)-3-methyl-1,2,3,4-tetrahydroisoquinolin-1-yl)phenyl)acrylic acid], the negative logarithm of the IC50 (pIC50) was 7.59.

With `C[C@H]1Cc2cc3c(cc2[C@H](c2c(F)cc(/C=C/C(=O)O)cc2F)N1CC(C)(C)F)OCO3` [Example 72, (E)-3-(3,5-difluoro-4-((5R,7S)-6-(2-fluoro-2-methylpropyl)-7-methyl-5,6,7,8-tetrahydro-[1,3]dioxolo[4,5-g]isoquinolin-5-yl)phenyl)acrylic acid], the pIC50 was 7.39.

Turning to `CC1Cc2cc(C#N)ccc2C(c2c(F)cc(/C=C/C(=O)O)cc2F)N1CC(C)(C)F` [Example 93, (E)-3-(4-((1S,3R/1R,3S)-6-cyano-2-(2-fluoro-2-methylpropyl)-3-methyl-1,2,3,4-tetrahydroisoquinolin-1-yl)-3,5-difluorophenyl)acrylic acid], the pIC50 is 7.89.

On to `C[C@H]1Cc2c(ccc3[nH]ncc23)[C@H](c2c(F)cc(/C=C/C(=O)O)cc2F)N1CC(C)(C)F` [Example 95, (E)-3-(3,5-difluoro-4-((6R,8S)-7-(2-fluoro-2-methylpropyl)-8-methyl-6,7,8,9-tetrahydro-3H-pyrazolo[4,3-f]isoquinolin-6-yl)phenyl)acrylic acid], for which the pIC50 is 7.53.

For the compound `CCn1cc(-c2ccc3oc4c(c3c2)C[C@H](C)N(CC(C)(C)F)[C@H]4c2c(F)cc(/C=C/C(=O)O)cc2F)cn1` [Example 96, (E)-3-(4-((1S,3S)-6-(1-ethyl-1H-pyrazol-4-yl)-2-(2-fluoro-2-methylpropyl)-3-methyl-1,2,3,4-tetrahydrobenzofuro[2,3-c]pyridin-1-yl)-3,5-difluorophenyl)acrylic acid], the pIC50 is 7.51.

Turning to `C[C@H]1Cc2cc(-c3ccc4cnccc4c3)ccc2[C@H](c2c(F)cc(/C=C/C(=O)O)cc2F)N1CC(C)(C)F` [Example 99, (E)-3-(3,5-difluoro-4-((1R,3S)-2-(2-fluoro-2-methylpropyl)-3-methyl-1,2,3,4-tetrahydro-[6,6′-biisoquinolin]-1-yl)phenyl)acrylic acid], the pIC50 was 7.11.

The values above are taken from US10087191B2, “Piperidine derivative and preparation method and pharmaceutical use thereof” (Jiangsu Hengrui Medicine Co., Ltd., priority 2015, dated 2018).
